Reference: patent publication US9908896B2, “P38 and JNK MAPK inhibitors for the treatment and prophylaxis of degenerative diseases of the nervous system” (ALLINKY BIOPHARMA, priority 2014, dated 2018)

What was measured:
[1] = tested on: TNF-α secretion by a human monocytic cell line, THP-1; test: Inhibition of TNF-α secretion by LPS-stimulated THP-1 cells (ELISA); format: cell-based; details: LPS-stimulated THP-1, TNF-α; for inhibition at 1 µM: 1 μM compound, read-out: % of inhibition at 1 μM, THP1; for inhibition at 10 µM: 10 μM compound, read-out: % of inhibition at 10 μM, THP1
Method: Thp1-Inhibition of TNF-α Secretion by a Human Monocytic Cell Line, THP-1
THP-1 cells, growing in log phase, were collected by centrifugation and resuspended in RPMI 1640 (Sigma Aldrich), to a final cell concentration of 2×10^6 cells/ml. Cells were plated into 24-well plates (BD Biosciences). Dilutions of compounds in dimethyl sulfoxide (DMSO) were added to the culture to a final concentration M. The final DMSO concentration was 0.5%. The cells […] suspensions were preincubated with compounds for 1 h at 37° C. in a 5% CO2 humidified atmosphere before the addition of LPS (Sigma Aldrich, L2654) to a g/ml. After that, cells were incubated for 3 h followed final concentration of […] by centrifugation to pellet cells. Cell supernatants were stored at 4° C. until human analysis for TNF-α content. TNF-α levels were determined by ELISA (TNF Biotrak, GE Healthcare) following the manufacturer's directions. The percentage inhibition was calculated for each compound concentration tested, and the IC50 was calculated for each compound.

[2] = tested on: recombinant activated JNK; test: in vitro kinase assay JNK (ADP-Glo); format: biochemical; details: 100 μM ATP; for % of inhibition at 1 μM, JNK: 1 μM compound; for % of inhibition at 10 μM, JNK: 10 μM compound
Method: (§1) Purified recombinant activated JNK (10 nM) (ProQinase) was preincubated 10 minutes at 30° C. with the compound of interest at concentrations between 1 and 100 μM in duplicate in a final volume of 30 μl of kinase buffer (Hepes 60 mM pH 7.5, MgCl2 3 mM, MnCl2 3 mM, sodium orthovanadate 3 μM, DTT 1.2 mM). After preincubation, peptide substrate (SignalChem #P03-58) and ATP were added to a final concentration of 10 μM and 100 μM respectively, and then incubated 40 minutes at 30° C. for the kinase reaction. Phosphorylation was analyzed with ADP-Glo™ (Promega #V9101) and emitted luminescence was measured with BMG Fluostar microplate reader.

[3] = molecular target: T1, recombinant activated p38alpha (Homo sapiens, UniProt Q16539); test: in vitro kinase assay p38 (ADP-Glo); format: biochemical; details: 100 μM ATP; for inhibition at 1 µM: 1 μM compound; for inhibition at 10 µM: 10 μM compound
T1 construct: purchased ProQinase
T1 sequence (Q16539 whole entry): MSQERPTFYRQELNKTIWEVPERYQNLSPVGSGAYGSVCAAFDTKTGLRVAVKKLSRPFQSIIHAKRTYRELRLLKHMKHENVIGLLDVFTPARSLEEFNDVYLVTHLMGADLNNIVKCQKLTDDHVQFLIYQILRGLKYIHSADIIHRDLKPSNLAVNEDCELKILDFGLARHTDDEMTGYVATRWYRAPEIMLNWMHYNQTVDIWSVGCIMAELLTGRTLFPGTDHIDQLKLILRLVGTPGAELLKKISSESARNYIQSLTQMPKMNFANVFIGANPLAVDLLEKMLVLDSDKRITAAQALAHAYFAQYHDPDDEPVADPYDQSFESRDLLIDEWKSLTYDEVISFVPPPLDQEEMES
Method: as §1, with “p38alpha” for “JNK”, “nM)(ProQinase)” for “nM) (ProQinase)”, “analysed” for “analyzed”

| % of inhibition at 1 μM, JNK [2] | % of inhibition at 10 μM, JNK [2] | inhibition at 1 µM [3] | inhibition at 10 µM [3] | SMILES | inhibition at 1 µM [1] | inhibition at 10 µM [1] |
| --- | --- | --- | --- | --- | --- | --- |
| 37% | 97% | 41% | 100% | CCCOc1ccc(Nc2nc3nonc3nc2N2CCC(Sc3ccc(C)cc3)CC2)cc1 [Comp 5] | 44% | 65% |
| 31% | 74% | 25% | 68% | CCOc1cccc(Nc2nc3nonc3nc2N2CCC(Oc3ccc(Cl)cc3)CC2)c1 [Comp 4] | 19% | 41% |
| 24% | 90% | 15% | 95% | Clc1ccc(OC2CCN(c3nc4nonc4nc3Nc3ccc4occc4c3)CC2)cc1 [Comp 12] | 45% | 51% |
| 36% | 91% | 41% | 87% | CCOc1ccc(Nc2nc3nonc3nc2N2CCC(Oc3ccc(Cl)cc3)CC2)cc1 [Comp 2] | 42% | 69% |
| 30% | 50% | 25% | 52% | CCOc1ccc(Nc2nc3nonc3nc2N2CCN(Cc3ccc(Cl)cc3)CC2)cc1 [Comp 10] | 19% | 31% |
| 24% | 74% | 21% | 105% | Clc1ccc(OC2CCN(c3nc4nonc4nc3Nc3ccc4c(c3)CCO4)CC2)cc1 [Comp 11] | 30% | 50% |
| 32% | 55% | 16% | 64% | CCOc1cccc(Nc2nc3nonc3nc2N2CCC(Sc3ccc(C)cc3)CC2)c1 [Comp 8] | 17% | 37% |
| 34% | 101% | 19% | 87% | CCCOc1cccc(Nc2nc3nonc3nc2N2CCC(Sc3ccc(C)cc3)CC2)c1 [Comp 7] | 21% | 33% |
| 26% | 51% | 23% | 68% | CCCOc1ccc(Nc2nc3nonc3nc2N2CCN(Cc3ccc(Cl)cc3)CC2)cc1 [Comp 9] | 27% | 39% |
| 31% | 96% | 23% | 100% | CCCOc1cccc(Nc2nc3nonc3nc2N2CCC(Oc3ccc(Cl)cc3)CC2)c1 [Comp 3] | 37% | 58% |
| 35% | 91% | 32% | 95% | CCOc1ccc(Nc2nc3nonc3nc2N2CCC(Sc3ccc(C)cc3)CC2)cc1 [Comp 6] | 28% | 39% |
